Reference: BindingDB's records for doi:10.3109/14756366.2012.663363 (Sun Yat-Sen University, 2013)

Legend:
[1] = molecular target: Carboxylic ester hydrolase (Equus caballus, UniProt Q9N1N9); assay: In Vitro AChE and BuChE Inhibition Assays; conditions: pH 8
Procedure: (§1) Enzyme solutions were prepared to give 2 units/mL in 2 mL aliquots. […] The substrate was added to the assay medium containing enzyme, buffer and DTNB with inhibitor after 15 min of incubation time.

Acetylcholinesterase = Acetylcholinesterase (Electrophorus electricus, UniProt O42275); assay: In Vitro AChE and BuChE Inhibition Assays; conditions: pH 8
Sequence of Acetylcholinesterase (O42275 whole entry): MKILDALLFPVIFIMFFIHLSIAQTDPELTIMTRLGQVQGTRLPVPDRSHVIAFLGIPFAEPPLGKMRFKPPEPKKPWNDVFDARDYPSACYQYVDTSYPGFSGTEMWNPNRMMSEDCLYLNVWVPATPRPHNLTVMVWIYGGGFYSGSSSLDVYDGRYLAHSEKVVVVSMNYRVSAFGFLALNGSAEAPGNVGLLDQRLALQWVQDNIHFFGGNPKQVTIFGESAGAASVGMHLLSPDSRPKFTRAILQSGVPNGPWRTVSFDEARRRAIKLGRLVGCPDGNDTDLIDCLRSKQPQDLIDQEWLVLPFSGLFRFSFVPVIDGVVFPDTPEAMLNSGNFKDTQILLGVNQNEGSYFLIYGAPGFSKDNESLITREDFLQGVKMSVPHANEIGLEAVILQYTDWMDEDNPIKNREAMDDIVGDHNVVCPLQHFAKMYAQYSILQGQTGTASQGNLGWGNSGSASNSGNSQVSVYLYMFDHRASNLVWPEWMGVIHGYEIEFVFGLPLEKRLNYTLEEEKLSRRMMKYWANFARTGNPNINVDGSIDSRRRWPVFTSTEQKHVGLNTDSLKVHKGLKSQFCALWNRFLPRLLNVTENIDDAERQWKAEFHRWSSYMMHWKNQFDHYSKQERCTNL
Procedure: as §1

Sequence of Carboxylic ester hydrolase (Q9N1N9 whole entry): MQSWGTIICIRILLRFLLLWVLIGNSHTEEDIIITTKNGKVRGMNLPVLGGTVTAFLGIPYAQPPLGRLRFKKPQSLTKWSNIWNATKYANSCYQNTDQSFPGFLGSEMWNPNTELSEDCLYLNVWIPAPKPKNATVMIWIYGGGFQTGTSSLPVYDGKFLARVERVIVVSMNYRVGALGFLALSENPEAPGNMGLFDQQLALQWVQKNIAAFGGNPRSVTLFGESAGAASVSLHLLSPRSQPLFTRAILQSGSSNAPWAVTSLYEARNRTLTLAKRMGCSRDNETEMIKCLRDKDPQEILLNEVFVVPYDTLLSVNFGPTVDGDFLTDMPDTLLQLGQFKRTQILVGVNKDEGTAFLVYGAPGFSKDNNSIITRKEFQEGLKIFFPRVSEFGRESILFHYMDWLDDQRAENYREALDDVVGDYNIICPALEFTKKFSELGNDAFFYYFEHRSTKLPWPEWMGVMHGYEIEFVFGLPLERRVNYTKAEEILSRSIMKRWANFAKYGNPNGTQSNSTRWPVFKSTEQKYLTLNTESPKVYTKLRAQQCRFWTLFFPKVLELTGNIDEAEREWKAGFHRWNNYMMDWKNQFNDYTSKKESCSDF

Compound | IC50 [1] | IC50 (Acetylcholinesterase)
O=c1[nH]c(-c2cc3ccccc3[nH]2)nc2ccccc12 [2-(2-Indolyl-)-4(3H)-quinazolines (2IQ)] | > 10 µM | > 10 µM
CCN(CC)CCCNc1nc(-c2cc3ccccc3[nH]2)nc2ccccc12 [N1-(2-(1H-indol-2-yl)quinazolin-4-yl)-N3,N3-diethylpropane-1,3-diamine (9b)] | > 10 µM | > 10 µM
CN(C)CCCNc1nc(-c2cc3ccccc3[nH]2)nc2ccccc12 [N1-(2-(1H-indol-2-yl)quinazolin-4-yl)-N3,N3-dimethylpropane-1,3-diamine (9a)] | > 10 µM | > 10 µM
CN1CCN(CC(=O)Nc2ccc3nc(-c4cc5ccccc5[nH]4)[nH]c(=O)c3c2)CC1 [N-(2-(1H-indol-2-yl)-4-oxo-3,4-dihydroquinazolin-6-yl)-2-(4-methylpiperazin-1-yl)acetamide (3e)] | > 10 µM | > 10 µM
CCN(CC)CC(=O)Nc1ccc2nc(-c3cc4ccccc4[nH]3)[nH]c(=O)c2c1 [N-(2-(1H-indol-2-yl)-4-oxo-3,4-dihydroquinazolin-6-yl)-2-(diethylamino)acetamide (3a)] | 14.8 µM | 0.503 µM
O=C(CN1CCCCC1)Nc1ccc2nc(-c3cc4ccccc4[nH]3)[nH]c(=O)c2c1 [N-(2-(1H-indol-2-yl)-4-oxo-3,4-dihydroquinazolin-6-yl)-2-(piperidin-1-yl)acetamide (3c)] | 10.2 µM | 0.148 µM
O=C(CN1CCCC1)Nc1ccc2nc(-c3cc4ccccc4[nH]3)[nH]c(=O)c2c1 [N-(2-(1H-indol-2-yl)-4-oxo-3,4-dihydroquinazolin-6-yl)-2-(pyrrolidin-1-yl)acetamide (3b)] | 3.1 µM | 0.327 µM
O=C(CN1CCOCC1)Nc1ccc2nc(-c3cc4ccccc4[nH]3)[nH]c(=O)c2c1 [N-(2-(1H-indol-2-yl)-4-oxo-3,4-dihydroquinazolin-6-yl)-2-morpholinoacetamide (3d)] | 32.2 µM | 2.02 µM
CN1CCN(CCC(=O)Nc2ccc3nc(-c4cc5ccccc5[nH]4)[nH]c(=O)c3c2)CC1 [N-(2-(1H-indol-2-yl)-4-oxo-3,4-dihydroquinazolin-6-yl)-3-(4-methylpiperazin-1-yl)propanamide (3j)] | > 10 µM | > 10 µM
CCN(CC)CCC(=O)Nc1ccc2nc(-c3cc4ccccc4[nH]3)[nH]c(=O)c2c1 [N-(2-(1H-indol-2-yl)-4-oxo-3,4-dihydroquinazolin-6-yl)-3-(diethylamino)propanamide (3f)] | 2.43 µM | 0.276 µM
O=C(CCN1CCCCC1)Nc1ccc2nc(-c3cc4ccccc4[nH]3)[nH]c(=O)c2c1 [N-(2-(1H-indol-2-yl)-4-oxo-3,4-dihydroquinazolin-6-yl)-3-(piperidin-1-yl)propanamide (3h)] | 7.32 µM | 0.021 µM
O=C(CCN1CCCC1)Nc1ccc2nc(-c3cc4ccccc4[nH]3)[nH]c(=O)c2c1 [N-(2-(1H-indol-2-yl)-4-oxo-3,4-dihydroquinazolin-6-yl)-3-(pyrrolidin-1-yl)propanamide (3g)] | 0.403 µM | 0.1 µM
O=C(CCN1CCOCC1)Nc1ccc2nc(-c3cc4ccccc4[nH]3)[nH]c(=O)c2c1 [N-(2-(1H-indol-2-yl)-4-oxo-3,4-dihydroquinazolin-6-yl)-3-morpholinopropanamide (3i)] | 51.6 µM | 1.26 µM
